Assay [1] is filed under the species Homo sapiens. Put plainly: In vitro inhibition of Serine protease chymotrypsin. Also noted: unit not given here.
Assay [2] is filed under the species Homo sapiens. Put plainly: Ratio of kobs/[l] for human leukocyte elastase and kobs/[l] for chymotrypsin.
Assay [3] addresses T1, Neutrophil elastase (Homo sapiens) (UniProt P08246).
T1 sequence (whole entry): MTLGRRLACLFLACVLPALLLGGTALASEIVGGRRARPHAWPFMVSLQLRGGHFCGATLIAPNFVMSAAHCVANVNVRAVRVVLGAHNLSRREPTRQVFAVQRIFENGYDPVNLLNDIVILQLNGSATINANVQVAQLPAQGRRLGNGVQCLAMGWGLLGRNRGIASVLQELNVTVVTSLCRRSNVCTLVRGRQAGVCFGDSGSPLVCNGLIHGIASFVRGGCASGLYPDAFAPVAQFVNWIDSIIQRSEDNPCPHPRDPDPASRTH
Put plainly: Inhibition of human leukocyte elastase. Details: unit not given here.

The structures appear in SMILES notation.

`CCS(=O)(=O)ON1C(=O)c2ccc(NC(=O)C(=O)OC)cc2C1=O`: the k obs / 1 is 5300 in the assay listed under Homo sapiens [1] and 56000 in assay [3]. Besides, in the assay listed under Homo sapiens [2], the Ratio came out at 11.
The matching figures for `COC(=O)C(=O)Nc1ccc2c(c1)C(=O)N(OS(C)(=O)=O)C2=O`: 5400, 30000 and 5.6.
On to `CCS(=O)(=O)ON1C(=O)c2ccc(N)cc2C1=O`, for which the k obs / 1 came out at 13000 in the assay filed under Homo sapiens [1] and 60000 in assay [3]. In the assay filed under Homo sapiens [2], the Ratio turned out to be 4.6.
On the same counts, the results for `CS(=O)(=O)ON1C(=O)c2ccc(NC(=O)/C=C/c3ccccc3)cc2C1=O` are 1600, 20000 and 13.
On to `CCS(=O)(=O)ON1C(=O)c2ccc(NC(=O)CCCC(=O)OC)cc2C1=O`, for which the values for the k obs / 1 (in the assay listed under Homo sapiens [1]; in assay [3]) were 14000 and 220000, respectively. The Ratio in the assay listed under Homo sapiens [2] amounted to 16.
On the same counts, the results for `CS(=O)(=O)ON1C(=O)c2ccc(NC(=O)CCc3ccccc3)cc2C1=O` are 4800, 9700 and 2.
The matching figures for `CCS(=O)(=O)ON1C(=O)c2ccc(NC(=O)CCC(=O)OC)cc2C1=O`: 9600, 25000 and 2.6.
On the same counts, the results for `CS(=O)(=O)ON1C(=O)c2ccc(NC(=O)c3cccc4ccccc34)cc2C1=O` are 3300, 25000 and 7.6.
On to `Cc1ccc(S(=O)(=O)N[C@@H](Cc2ccccc2)C(=O)Nc2ccc3c(c2)C(=O)N(OS(C)(=O)=O)C3=O)cc1`, for which the k obs / 1 in the assay filed under Homo sapiens [1] came out at 11000; in assay [3], 160000. Also, in the assay listed under Homo sapiens [2], the Ratio was 15.
On the same counts, the results for `COC(=O)CCCC(=O)Nc1ccc2c(c1)C(=O)N(OS(C)(=O)=O)C2=O` are 6600, 57000 and 8.6.
On the same counts, the results for `CS(=O)(=O)ON1C(=O)c2ccc(NC(=O)c3ccccc3)cc2C1=O` are 3600, 25000 and 6.9.
For the molecule `CS(=O)(=O)ON1C(=O)c2ccc(N)cc2C1=O`, the k obs / 1 came to 12000 in the assay listed under Homo sapiens [1] and 110000 in assay [3]. For the same molecule, in the assay listed under Homo sapiens [2], the Ratio came to 9.2.

The values above are taken from ChEMBL document CHEMBL1133055, “6-Acylamino-2-[(alkylsulfonyl)oxy]-1H-isoindole-1,3-dione mechanism-based inhibitors of human leukocyte elastase” (Bioorg Med Chem Lett, 2000).
